Data from ChEMBL document CHEMBL5380848, “Novel Benzo Five-Membered Heterocycle Derivatives as P-Glycoprotein Inhibitors: Design, Synthesis, Molecular Docking, and Anti-Multidrug Resistance Activity” (J Med Chem, 2023).

Assays:
[1] = target: ATP-dependent translocase ABCB1 (Homo sapiens, UniProt P08183); assay: Inhibition of P-gp-mediated multidrug resistance in doxorubicin-resistant human MCF7/ADR cells assessed as fold reversal of resistance by measuring doxorubicin IC50 incubated for 48 hrs by CCK-8 assay relative to doxorubicin IC50 in absence of compound; format: cell-based; conditions: nci-adr-res
Chain of ATP-dependent translocase ABCB1 (P08183 whole entry): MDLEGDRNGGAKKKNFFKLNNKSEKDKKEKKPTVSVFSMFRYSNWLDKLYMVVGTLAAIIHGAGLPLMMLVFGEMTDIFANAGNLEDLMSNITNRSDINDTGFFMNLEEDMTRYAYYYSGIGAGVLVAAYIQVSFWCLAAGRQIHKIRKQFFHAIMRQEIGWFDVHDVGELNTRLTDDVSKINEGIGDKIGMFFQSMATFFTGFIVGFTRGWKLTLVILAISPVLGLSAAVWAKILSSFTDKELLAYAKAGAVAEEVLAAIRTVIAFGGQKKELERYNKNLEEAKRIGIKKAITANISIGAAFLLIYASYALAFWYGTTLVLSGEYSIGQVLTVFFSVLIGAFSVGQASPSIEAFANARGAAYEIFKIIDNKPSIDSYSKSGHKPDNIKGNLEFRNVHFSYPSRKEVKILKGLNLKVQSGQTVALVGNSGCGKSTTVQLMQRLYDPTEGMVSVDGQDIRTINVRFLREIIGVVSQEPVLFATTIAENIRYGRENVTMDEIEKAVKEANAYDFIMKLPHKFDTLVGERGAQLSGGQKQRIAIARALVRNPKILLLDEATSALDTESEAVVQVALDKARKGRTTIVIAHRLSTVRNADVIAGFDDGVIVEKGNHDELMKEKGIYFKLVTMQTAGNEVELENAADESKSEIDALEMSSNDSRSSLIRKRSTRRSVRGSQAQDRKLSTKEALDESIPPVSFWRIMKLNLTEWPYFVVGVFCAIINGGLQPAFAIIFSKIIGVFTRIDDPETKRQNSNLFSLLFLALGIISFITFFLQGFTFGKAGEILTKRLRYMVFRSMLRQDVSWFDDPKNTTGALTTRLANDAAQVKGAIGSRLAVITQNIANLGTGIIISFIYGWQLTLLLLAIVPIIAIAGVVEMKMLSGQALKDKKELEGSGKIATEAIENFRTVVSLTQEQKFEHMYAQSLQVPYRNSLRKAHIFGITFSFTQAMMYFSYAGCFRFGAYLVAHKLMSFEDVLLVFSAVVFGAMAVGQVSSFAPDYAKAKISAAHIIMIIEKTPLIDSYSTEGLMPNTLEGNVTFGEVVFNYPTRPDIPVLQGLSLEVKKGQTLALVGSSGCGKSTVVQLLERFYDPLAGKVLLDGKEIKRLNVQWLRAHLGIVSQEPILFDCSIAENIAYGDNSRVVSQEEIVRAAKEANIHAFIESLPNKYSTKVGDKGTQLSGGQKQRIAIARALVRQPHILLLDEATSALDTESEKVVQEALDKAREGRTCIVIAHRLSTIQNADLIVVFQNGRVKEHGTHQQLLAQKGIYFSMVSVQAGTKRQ

[2] = test system: MCF7; assay: Cytotoxicity against human MCF7 cells assessed as inhibition rate at 5 uM measured after […] hrs by CCK-8 assay relative to control; format: functional
[3] = test system: NCI/ADR-RES; assay: Cytotoxicity against doxorubicin-resistant human MCF-7/ADR cells assessed as inhibition rate at 5 uM measured after […] hrs by CCK-8 assay relative to control; format: functional

SMILES | fold change (FC) [1] | inhibition at 5 µM [2] [%] | inhibition at 5 µM [3] [%]
COc1cc2c(cc1OC)CN(C(=O)c1cc3cc(-c4ccc(NC(=O)c5ccc(Cl)cc5)cc4)ccc3n1Cc1ccc(F)cc1)CC2 | 53.5 | 11.2 | 16.6
C/C=C/C[C@@H](C)[C@@H](O)[C@H]1C(=O)N[C@@H](CC)C(=O)N(C)CC(=O)N(C)[C@@H](CC(C)C)C(=O)N[C@@H](C(C)C)C(=O)N(C)[C@@H](CC(C)C)C(=O)N[C@@H](C)C(=O)N[C@H](C)C(=O)N(C)[C@@H](CC(C)C)C(=O)N(C)[C@@H](CC(C)C)C(=O)N(C)[C@@H](C(C)C)C(=O)N1C [CYCLOSPORINE] | – | – | 24.5
COc1ccc(Cn2c(C(=O)N3CCc4cc(OC)c(OC)cc4C3)cc3cc(-c4ccc(NC(=O)c5ccc(Cl)cc5)cc4)ccc32)cc1 | 105.6 | 3.2 | 18.1
COc1cc2c(cc1OC)CN(C(=O)c1cc3cc(-c4ccc(NC(=O)c5cccc(Cl)c5)cc4)ccc3[nH]1)CC2 | 431.5 | 12 | 17.7
COc1cc2c(cc1OC)CN(C(=O)c1cc3cc(-c4ccc(NC(=O)c5cc(OC)c(OC)c(OC)c5)cc4)ccc3[nH]1)CC2 | 93.6 | 14.1 | 10.6
COc1cc2c(cc1OC)CN(C(=O)c1cc3cc(-c4ccccc4F)ccc3[nH]1)CC2 | 17 | – | –
COc1cc2c(cc1OC)CN(C(=O)c1cc3cc(-c4ccccc4C)ccc3[nH]1)CC2 | 26.3 | – | –
COc1cc2c(cc1OC)CN(C(=O)c1cc3cc(-c4ccc(NC(=O)c5ccccc5OC)cc4)ccc3[nH]1)CC2 | 16.1 | 20.7 | -2.9
CCCCOc1ccc(-c2ccc3[nH]c(C(=O)N4CCc5cc(OC)c(OC)cc5C4)cc3c2)cc1 | 18.3 | – | –
COc1cc2c(cc1OC)CN(C(=O)c1cc3cc(-c4ccc(Cl)cc4)ccc3[nH]1)CC2 | 100.4 | – | –
COc1cc2c(cc1OC)CN(C(=O)c1cc3cc(-c4ccc(NC(=O)c5ccc(Cl)cc5)cc4)ccc3n1Cc1ccc(C(F)(F)F)cc1)CC2 | 29 | 15.5 | 12.6
COc1ccc(-c2ccc3[nH]c(C(=O)N4CCc5cc(OC)c(OC)cc5C4)cc3c2)c(OC)c1 | 112.7 | – | –
COc1cc2c(cc1OC)CN(C(=O)c1cc3cc(-c4ccc(NC(=O)c5ccc(Cl)cc5)cc4)ccc3n1Cc1ccc(Cl)cc1)CC2 | 25.9 | 2.6 | -3.3
COc1cccc(C(=O)Nc2ccc(-c3ccc4[nH]c(C(=O)N5CCc6cc(OC)c(OC)cc6C5)cc4c3)cc2)c1 | 325.9 | 11.4 | 18.9
COc1cc2c(cc1OC)CN(C(=O)c1cc3cc(-c4cccc(Cl)c4)ccc3[nH]1)CC2 | 33.4 | – | –
COc1cc2c(cc1OC)CN(C(=O)c1cc3cc(-c4ccc(NC(=O)c5ccc(Cl)cc5)cc4)ccc3n1Cc1cc(C(F)(F)F)cc(C(F)(F)F)c1)CC2 | 40.9 | 3.8 | 1.9
COc1cc2c(cc1OC)CN(C(=O)c1cc3cc(-c4ccc(NC(=O)c5ccccc5)cc4)ccc3[nH]1)CC2 | 146.3 | 15.5 | 11
COc1cc2c(cc1OC)CN(C(=O)c1cc3cc(-c4cccc(OC)c4OC)ccc3[nH]1)CC2 | 88.3 | – | –
COc1cc2c(cc1OC)CN(C(=O)c1cc3cc(-c4ccc(NC(=O)c5ccc(Cl)cc5)cc4)ccc3n1Cc1ccccc1)CC2 | 55.4 | 10.1 | 6.9
COc1cc2c(cc1OC)CN(C(=O)c1cc3cc(-c4ccc(NC(=O)c5ccc(F)cc5)cc4)ccc3[nH]1)CC2 | 3628.7 | 52.8 | 50.4

SMILES | fold change (FC) [1] | inhibition at 5 µM [2] [%] | inhibition at 5 µM [3] [%]
COc1cccc(Cn2c(C(=O)N3CCc4cc(OC)c(OC)cc4C3)cc3cc(-c4ccc(NC(=O)c5ccc(Cl)cc5)cc4)ccc32)c1 | 26.5 | 5 | 5
COc1cc2c(cc1OC)CN(C(=O)c1cc3cc(-c4ccc(NC(=O)c5ccc(Cl)cc5)cc4)ccc3n1Cc1ccc([N+](=O)[O-])cc1)CC2 | 25.9 | 19.1 | 12.8
COc1cc2c(cc1OC)CN(C(=O)c1cc3cc(-c4ccc(Oc5ccccc5)cc4)ccc3[nH]1)CC2 | 30 | – | –
COc1cc2c(cc1OC)CN(C(=O)c1cc3cc(-c4ccc(NC(=O)c5cccc(F)c5)cc4)ccc3[nH]1)CC2 | 1021.3 | 31.5 | 34.1
COc1ccc(C(=O)Nc2ccc(-c3ccc4[nH]c(C(=O)N5CCc6cc(OC)c(OC)cc6C5)cc4c3)cc2)cc1OC | 486.9 | 20.6 | 37.2
CCOc1ccc(C(=O)Nc2ccc(-c3ccc4[nH]c(C(=O)N5CCc6cc(OC)c(OC)cc6C5)cc4c3)cc2)cc1 | 333 | 15.4 | 7.7
COc1cc2c(cc1OC)CN(C(=O)c1cc3cc(-c4ccc(NC(=O)c5ccc(I)cc5)cc4)ccc3[nH]1)CC2 | 83 | 15.4 | 12.9
COc1cccc2c1C(=O)c1c(O)c3c(c(O)c1C2=O)C[C@@](O)(C(=O)CO)C[C@@H]3O[C@H]1C[C@H](N)[C@H](O)[C@H](C)O1 [DOXORUBICIN] | 1 | – | –
CCCOc1ccc(-c2ccc3[nH]c(C(=O)N4CCc5cc(OC)c(OC)cc5C4)cc3c2)cc1 | 16.5 | – | –
COc1cc2c(cc1OC)CN(C(=O)c1cc3cc(-c4ccc(NC(=O)c5ccccc5Cl)cc4)ccc3[nH]1)CC2 | 241.9 | 12.7 | 12.4
COc1cc2c(cc1OC)CN(C(=O)c1cc3cc(-c4ccc(NC(=O)c5ccc(Cl)cc5)cc4)ccc3n1Cc1cccc(C(F)(F)F)c1)CC2 | 39.9 | 8.5 | 6.3
COc1cc2c(cc1OC)CN(C(=O)c1cc3cc(-c4ccc(NC(=O)c5ccc(Br)cc5)cc4)ccc3[nH]1)CC2 | 201.7 | 10.2 | 19.1
COc1cc2c(cc1OC)CN(CCc1ccc(NC(=O)c3cc(OC)c(OC)cc3NC(=O)c3cnc4ccccc4c3)cc1)CC2 | 283.2 | 42.8 | 48.9
COc1cc2c(cc1OC)CN(C(=O)c1cc3cc(-c4ccc(NC(=O)c5ccc(OC(F)(F)F)cc5)cc4)ccc3[nH]1)CC2 | – | 46.7 | 53.8
COc1cc2c(cc1OC)CN(C(=O)c1cc3cc(-c4cccc(C)c4)ccc3[nH]1)CC2 | 58.1 | – | –
COc1cc2c(cc1OC)CN(C(=O)c1cc3cc(-c4ccc(NC(=O)c5ccc(Cl)cc5)cc4)ccc3n1Cc1ccc(Br)cc1)CC2 | 31.1 | 3.5 | -13.8
COc1cc2c(cc1OC)CN(C(=O)c1cc3cc(-c4ccc(NC(=O)c5ccc(Cl)cc5)cc4)ccc3n1Cc1ccccc1C(F)(F)F)CC2 | 10.4 | 19.3 | 8.6
COc1ccc(OC)c(-c2ccc3[nH]c(C(=O)N4CCc5cc(OC)c(OC)cc5C4)cc3c2)c1 | 108.7 | – | –
COc1ccc(CCN(C)CCCC(C#N)(c2ccc(OC)c(OC)c2)C(C)C)cc1OC (centres undefined) | – | 6.9 | 12.2
COc1cc2c(cc1OC)CN(C(=O)c1cc3cc(-c4ccccc4[N+](=O)[O-])ccc3[nH]1)CC2 | 41.9 | – | –

SMILES | fold change (FC) [1] | inhibition at 5 µM [2] [%] | inhibition at 5 µM [3] [%]
COc1cc2c(cc1OC)CN(C(=O)c1cc3cc(-c4cc(OC)c(OC)c(OC)c4)ccc3[nH]1)CC2 | 137.6 | – | –
COc1cccc(-c2ccc3[nH]c(C(=O)N4CCc5cc(OC)c(OC)cc5C4)cc3c2)c1 | 204.4 | – | –
COc1cc(OC)cc(-c2ccc3[nH]c(C(=O)N4CCc5cc(OC)c(OC)cc5C4)cc3c2)c1 | 86.4 | – | –
COc1cc2c(cc1OC)CN(C(=O)c1cc3cc(-c4ccc(N)cc4)ccc3[nH]1)CC2 | 34.9 | – | –
COc1cc2c(cc1OC)CN(C(=O)c1cc3cc(-c4ccc(F)cc4)ccc3[nH]1)CC2 | 51.3 | – | –
COc1cc2c(cc1OC)CN(C(=O)c1cc3cc(-c4cccc([N+](=O)[O-])c4)ccc3[nH]1)CC2 | 76.3 | – | –
COc1ccc(-c2ccc3[nH]c(C(=O)N4CCc5cc(OC)c(OC)cc5C4)cc3c2)cc1 | 46.4 | – | –
COc1cc2c(cc1OC)CN(C(=O)c1cc3cc(-c4ccc(OC(F)(F)F)cc4)ccc3[nH]1)CC2 | 99.1 | – | –
COc1cc2c(cc1OC)CN(C(=O)c1cc3cc(-c4ccc(C)cc4)ccc3[nH]1)CC2 | 41.4 | – | –
COc1cc2c(cc1OC)CN(C(=O)c1cc3cc(-c4ccccc4Cl)ccc3[nH]1)CC2 | 52.8 | – | –
COc1cc2c(cc1OC)CN(C(=O)c1cc3cc(-c4ccc5c(c4)OCO5)ccc3[nH]1)CC2 | 33.4 | – | –
COc1cc2c(cc1OC)CN(C(=O)c1cc3cc(-c4cccc(F)c4)ccc3[nH]1)CC2 | 19.9 | – | –
COc1cc2c(cc1OC)CN(C(=O)c1cc3cc(-c4ccccc4)ccc3[nH]1)CC2 | 10 | – | –
COc1cc2c(cc1OC)CN(C(=O)c1cc3cc(-c4ccc(OC(C)(C)C)cc4)ccc3[nH]1)CC2 | 27.5 | – | –
COc1ccc(-c2ccc3[nH]c(C(=O)N4CCc5cc(OC)c(OC)cc5C4)cc3c2)cc1OC | 56.2 | – | –
CCOc1ccc(-c2ccc3[nH]c(C(=O)N4CCc5cc(OC)c(OC)cc5C4)cc3c2)cc1 | 33.6 | – | –
COc1cc2c(cc1OC)CN(C(=O)c1cc3cc(-c4ccc([N+](=O)[O-])cc4)ccc3[nH]1)CC2 | 55.8 | – | –
COc1cc2c(cc1OC)CN(C(=O)c1cc3cc(-c4ccc(OC(C)C)cc4)ccc3[nH]1)CC2 | 24 | – | –
COc1cc2c(cc1OC)CN(C(=O)c1cc3cc(-c4ccccc4OC)ccc3[nH]1)CC2 | 15.1 | – | –
